What was measured:
[1] = target: T1, pepsin (Sus scrofa, UniProt P00791); experiment: Gastrointestinal stability in simulated gastric fluid (SGF); assay type: in vitro ADME; settings: SGF pH 1.2, 5 μg/mL pepsin, 0.5 mg/mL teriparatide, 37 °C, 100 rpm; CD after release in PBS pH 7.4
T1 construct: purchased Sigma-Aldrich Co. (St Louis, MO, USA)
Description: (§1) The conformational integrity of teriparatide encapsulated within nanocomplexes was assessed under simulated gastrointestinal conditions using enzyme-supplemented media. Specifically, samples were incubated in simulated gastric fluid (SGF; pH 1.2, containing 5 μg/mL pepsin) or simulated intestinal fluid (SIF; pH 7.4, supplemented with 20 μg/mL trypsin). Nanoparticles corresponding to 0.5 mg/mL of teriparatide were dispersed in 1 mL of either SGF or SIF and incubated at 37 °C with stirring at 100 rpm. Digestion was quenched with 0.2 mL of 0.2 M NaOH (for SGF) or 0.1 M HCl (for SIF) at predefined times. The nanoparticles were then isolated via centrifugation, redispersed in PBS (pH 7.4), and incubated for 2 h. The conformation of teriparatide following its release from nanoparticles was analyzed by CD spectroscopy to verify structural stability.

[2] = tested on: trypsin; experiment: Gastrointestinal stability in simulated intestinal fluid (SIF); assay type: in vitro ADME; settings: SIF pH 7.4, 20 μg/mL trypsin, 0.5 mg/mL teriparatide, 37 °C, 100 rpm; CD after release in PBS pH 7.4
Description: as §1

[3] = tested on: dexamethasone-induced osteoporosis rats; experiment: Serum bone-turnover biomarkers in dexamethasone-induced osteoporosis rats; assay type: in vivo, rat; settings: 8 weeks daily, oral EE/AC-Teri 16 mg/kg or sc teriparatide 0.04 mg/kg, n = 6
Description: The therapeutic effect of orally delivered EE/AC-Teri was examined in dexamethasone-induced osteoporosis rats under an Institutional Animal Care and Use committee (IACUC)-approved protocol (IACUC-2023-039-2). Male Sprague–Dawley rats (280–300 g) were randomly allocated to four groups (n = 6 each). The control group received a daily subcutaneous saline. In the osteoporotic model group, 0.1 mg/kg dexamethasone was administered subcutaneously each day to induce bone loss. The injectable teriparatide treatment group was given a combination of daily subcutaneous dexamethasone (0.1 mg/kg) and teriparatide (0.04 mg/kg). The final group was administered EE/AC-Teri orally (16 mg/kg of teriparatide), in combination with daily subcutaneous dexamethasone (0.1 mg/kg). After 8 week-treatment, blood was drawn for biochemical analysis. […] Serum osteocalcin (OCN), procollagen type I N-terminal propeptide (PINP), C-terminal telopeptide of type I collagen (CTx), tartrate-resistant acid phosphatase 5b (TRAP5b), and calcium were quantified with commercial ELISA kits (Thermo Fisher Scientific, Waltham, MA, USA) according to the manufacturer’s instructions. […] Quantitative parameters describing trabecular bone microarchitecture were assessed using Analyze software (ver 12.0; AnalyzeDirect, Overland Park, KS, USA).

[4] = tested on: dexamethasone-induced osteoporosis rats; experiment: Micro-CT and histology of femora in dexamethasone-induced osteoporosis rats; assay type: in vivo, rat
Description: The therapeutic effect of orally delivered EE/AC-Teri was examined in dexamethasone-induced osteoporosis rats under an Institutional Animal Care and Use committee (IACUC)-approved protocol (IACUC-2023-039-2). Male Sprague–Dawley rats (280–300 g) were randomly allocated to four groups (n = 6 each). The control group received a daily subcutaneous saline. In the osteoporotic model group, 0.1 mg/kg dexamethasone was administered subcutaneously each day to induce bone loss. The injectable teriparatide treatment group was given a combination of daily subcutaneous dexamethasone (0.1 mg/kg) and teriparatide (0.04 mg/kg). The final group was administered EE/AC-Teri orally (16 mg/kg of teriparatide), in combination with daily subcutaneous dexamethasone (0.1 mg/kg). After 8 week-treatment, blood was drawn for biochemical analysis. Blood (0.6 mL) was collected once on day 57 via the jugular vein under 1.5% isoflurane anesthesia in a Tabletop Anesthesia System (Harvard Apparatus, Cambridge, MA, USA). Serum osteocalcin (OCN), procollagen type I N-terminal propeptide (PINP), C-terminal telopeptide of type I collagen (CTx), tartrate-resistant acid phosphatase 5b (TRAP5b), and calcium were quantified with commercial ELISA kits (Thermo Fisher Scientific, Waltham, MA, USA) according to the manufacturer’s instructions. At study completion, animals were euthanized using a 30%/min displacement of chamber air with compressed CO2. Both femora were excised and fixed in 4% neutral-buffered formalin for 48 h. Fixed bones were processed for histological and structural analysis. Some samples were paraffin-embedded and sectioned for histological examination using hematoxylin and eosin (H&E) staining. The remaining specimens were subjected to structural evaluation via micro-computed tomography (micro-CT; the Korea Basic Science Institute). Images were acquired using a 90 kV/80 μA X-ray source over a 4 min acquisition time, with the scan field confined to 10 mm. Reconstructed images were generated at an isotropic voxel resolution of 20 μm. Quantitative parameters describing trabecular bone microarchitecture were assessed using Analyze software (ver 12.0; AnalyzeDirect, Overland Park, KS, USA).

[5] = 8 weeks daily, oral EE/AC-Teri 16 mg/kg or sc teriparatide 0.04 mg/kg, dexamethasone rats, femur

T1 sequence (P00791 60-385): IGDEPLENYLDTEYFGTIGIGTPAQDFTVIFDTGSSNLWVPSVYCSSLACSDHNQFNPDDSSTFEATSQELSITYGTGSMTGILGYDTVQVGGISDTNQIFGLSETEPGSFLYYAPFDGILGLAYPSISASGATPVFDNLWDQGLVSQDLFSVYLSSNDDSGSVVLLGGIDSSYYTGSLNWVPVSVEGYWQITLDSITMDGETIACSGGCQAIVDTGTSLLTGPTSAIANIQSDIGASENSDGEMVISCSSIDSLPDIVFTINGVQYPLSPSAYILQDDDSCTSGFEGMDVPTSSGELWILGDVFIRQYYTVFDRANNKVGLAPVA

CC[C@H](C)[C@H](NC(=O)[C@H](CCC(=O)O)NC(=O)[C@H](CO)NC(=O)[C@@H](NC(=O)[C@@H](N)CO)C(C)C)C(=O)N[C@@H](CCC(N)=O)C(=O)N[C@@H](CC(C)C)C(=O)N[C@@H](CCSC)C(=O)N[C@@H](Cc1cnc[nH]1)C(=O)N[C@@H](CC(N)=O)C(=O)N[C@@H](CC(C)C)C(=O)NCC(=O)N[C@@H](CCCCN)C(=O)N[C@@H](Cc1cnc[nH]1)C(=O)N[C@@H](CC(C)C)C(=O)N[C@@H](CC(N)=O)C(=O)N[C@@H](CO)C(=O)N[C@@H](CCSC)C(=O)N[C@@H](CCC(=O)O)C(=O)N[C@@H](CCCN=C(N)N)C(=O)N[C@H](C(=O)N[C@@H](CCC(=O)O)C(=O)N[C@@H](Cc1c[nH]c2ccccc12)C(=O)N[C@@H](CC(C)C)C(=O)N[C@@H](CCCN=C(N)N)C(=O)N[C@@H](CCCCN)C(=O)N[C@@H](CCCCN)C(=O)N[C@@H](CC(C)C)C(=O)N[C@@H](CCC(N)=O)C(=O)N[C@@H](CC(=O)O)C(=O)N[C@H](C(=O)N[C@@H](Cc1cnc[nH]1)C(=O)N[C@@H](CC(N)=O)C(=O)N[C@@H](Cc1ccccc1)C(=O)O)C(C)C)C(C)C [teriparatide]
Conformational integrity of teriparatide in SGF (CD spectra) [1]: pronounced conformational alterations in both SGF and SIF | Conformational integrity of teriparatide in SIF (CD spectra) [2]: pronounced conformational alterations in both SGF and SIF | Serum calcium / hypercalcemia [3]: did not produce sustained hypercalcemia | Trabecular architecture by histology (H&E) [4, 5]: partially restored architecture | Trabecular architecture by micro-CT imaging [4, 5]: mitigated these lesions, preserving a denser, interconnected trabecular network | Bone mineral density (BMD) ([4]; micro-CT, 8 weeks, oral EE/AC-Teri 16 mg/kg or sc teriparatide 0.04 mg/kg, versus dexamethasone control, n = 6): significantly restored | Bone volume fraction (BV/TV) ([4]; micro-CT, 8 weeks, sc teriparatide 0.04 mg/kg, versus dexamethasone control, n = 6): significantly restored

— publication PMC12655526, “Effective Oral Delivery of Teriparatide Using Organoclay—Polymethacrylate Nanocomposites for Osteoporosis Therapy” (Pharmaceutics, 2025)
